According to patent publication US10772840B2 (Charleston Laboratories, Inc., priority 2016, dated 2020):
Structures can show the parent of a compound that is named as a salt.

Test: Dissolution measurement by USP Apparatus 2 (Paddle Apparatus), HPLC analysis
Type: physicochemical
Conditions: for Dissolution, API released: 500 ml 0.1 N HCl pH 1.1, 37.0° C.; for Dissolution (% release), Max. / Dissolution (% release), Mean / Dissolution (% release), Min.: 500 ml 0.1 N HCl pH 1.1, N=6
Description: Dissolution studies were conducted to measure the rates of dissolution of active ingredients using a USP Apparatus 2 (Paddle Apparatus) with a dissolution fluid of 500 ml deaerated 0.1 N HCl (i.e., pH 1.1) at 37.0+/−0.5° C. Dissolution samples were analyzed by HPLC.
Dissolution medium of 0.1N HCl was prepared by mixing approximately 85 ml of concentrated (12N) Hydrochloric Acid with 10 L of water. Stock promethazine HCl standard solution was prepared by adding approximately 30 ml of dissolution medium to 25.0 mg of dried Promethazine Hydrochloride USP reference standard in a 50 ml volumetric flash, diluted to volume with dissolution media, and mixed well. […] The resulting solution is diluted to volume with dissolution medium and mixed well.
The dissolution apparatus used is USP Apparatus 2 (Paddle Apparatus) with a speed of 50 rpm at 37.0° C.±0.5° C. Dissolution medium (500 ml) was Helium sparged for at least 10 minutes. N=6 samples were tested. Sample time point of 5, 10, 15, 20, 30, 45, 60, and 90 minutes (final time point at 250 rpm). Filters: QLA 10 μm in-line full flow porous filter or equivalent; chromafil 1.0 μm on-line glass fiber membrane filter or equivalent.
The dissolution apparatus was assembled and the paddle was positioned so that the distance between its lower edge and the lower inner surface of the vessel is within 25 mm±2 mm throughout the test. This step was repeated for each of the six vessels. The speed (50 rpm) and the temperature (37.0° C.±0.5° C.) were set. 500 mL of 0.1N HCl solution were placed into each of the six vessels, previously degassed via helium purge, degassed using degasser or other suitable means. The Dissolution medium was equilibrated to set temperature and the temperature of the dissolution medium was checked with a thermometer or thermocouple before starting the dissolution. Each of the six (6) capsules were accurately weighed and the weight was recorded. The dissolution test was started. Each capsule was dropped with sinker into vessels noting the station assigned to each recorded capsule weight. The shaft was rotated at 50 rpm. Samples were withdrawn by dissolution auttosampler at 5, 10, 15, 20, 30, 45, 60, and 90 minutes into HPLC vials, or were withdraw manually. Filters (QLA 10 μm in-line full flow porous filter or equivalent; chromafil 1.0 μm on-line glass fiber membrane filter or equivalent) were utilized, discarding at least the first 5 mL of the filtrate, and clear filtrate was transfered into HPLC vials. After withdrawing samples at the 60 minute time point, the paddle rotation speed was increased to 250 rpm until the next time point of 90 minutes.
HPLC conditions: Flow rate: 1.0 ml/min; Injection Volume: 10 μL; Column Temperature: 40° C.±2° C.; Wavelengths: 240 nm; Run Time: 7 minutes; Mobile Phase A was 0.2% TFA in Water, which was prepared by mixing well 2.0 ml of trifluoroacetic acid with 1 L of water. Mobile Phase B: 0.2% TFA in Acetonitrile, which was prepared by mixing well 2.0 ml of trifluoroacetic acid to 1 L of acetonitrile; and Gradient used was as follows in Table 8.
If a Water® dissolution autosampler was utilized, then the Empower Dissolution Software was used to calculate the profile. Calculation are performed using a validated excel spreadsheet. When the sample was performed manually, the volume correction was considered for the calculation.

[1] = in a capsule, after 1 month store at 40° C., 5 min, 50 rpm
[2] = in a capsule, after 1 month store at 40° C., 10 min, 50 rpm
[3] = in a capsule, after 1 month store at 40° C., 15 min, 50 rpm
[4] = in a capsule, after 1 month store at 40° C., 20 min, 50 rpm
[5] = in a capsule, after 1 month store at 40° C., 30 min, 50 rpm
[6] = in a capsule, after 1 month store at 40° C., 45 min, 50 rpm
[7] = in a capsule, after 1 month store at 40° C., 60 min, 50 rpm
[8] = in a capsule, after 1 month store at 40° C., 90 min (250 rpm after 60 min)
[9] = in a capsule, large batch, 5 min, 50 rpm
[10] = in a capsule, large batch, 10 min, 50 rpm
[11] = in a capsule, large batch, 15 min, 50 rpm
[12] = in a capsule, large batch, 20 min, 50 rpm
[13] = in a capsule, large batch, 30 min, 50 rpm
[14] = in a capsule, large batch, 45 min, 50 rpm
[15] = in a capsule, large batch, 60 min, 50 rpm
[16] = in a capsule, large batch, 90 min (250 rpm after 60 min)

SMILES: CC(CN1c2ccccc2Sc2ccccc21)N(C)C (centres unmarked) [Promethazine, Promethazine Hydrochloride]
- Dissolution, API released (content of capsule without shells, 5 min, 50 rpm): 85%
- Dissolution, API released (content of capsule without shells, 10 min, 50 rpm): 90%
- Dissolution, API released (content of capsule without shells, 15 min, 50 rpm): 92%
- Dissolution, API released (content of capsule without shells, 20 min, 50 rpm): 94%
- Dissolution, API released (content of capsule without shells, 30 min, 50 rpm): 94%
- Dissolution, API released (content of capsule without shells, 45 min, 50 rpm): 95%
- Dissolution, API released (content of capsule without shells, 60 min, 50 rpm): 96%
- Dissolution, API released (content of capsule without shells, 90 min (250 rpm after 60 min)): 100%
- Dissolution (% release), Max. [1]: 56
- Dissolution (% release), Mean [1]: 43
- Dissolution (% release), Min. [1]: 35
- Dissolution (% release), Max. [2]: 77
- Dissolution (% release), Mean [2]: 64
- Dissolution (% release), Min. [2]: 54
- Dissolution (% release), Max. [3]: 83
- Dissolution (% release), Mean [3]: 73
- Dissolution (% release), Min. [3]: 63
- Dissolution (% release), Max. [4]: 88
- Dissolution (% release), Mean [4]: 79
- Dissolution (% release), Min. [4]: 68
- Dissolution (% release), Max. [5]: 92
- Dissolution (% release), Mean [5]: 84
- Dissolution (% release), Min. [5]: 74
- Dissolution (% release), Max. [6]: 96
- Dissolution (% release), Mean [6]: 89
- Dissolution (% release), Min. [6]: 80
- Dissolution (% release), Max. [7]: 98
- Dissolution (% release), Mean [7]: 92
- Dissolution (% release), Min. [7]: 84
- Dissolution (% release), Max. [8]: 103
- Dissolution (% release), Mean [8]: 102
- Dissolution (% release), Min. [8]: 99
- Dissolution (% release), Max. [9]: 63
- Dissolution (% release), Mean [9]: 47
- Dissolution (% release), Min. [9]: 32
- Dissolution (% release), Max. [10]: 87
- Dissolution (% release), Mean [10]: 69
- Dissolution (% release), Min. [10]: 53
- Dissolution (% release), Max. [11]: 92
- Dissolution (% release), Mean [11]: 78
- Dissolution (% release), Min. [11]: 63
- Dissolution (% release), Max. [12]: 95
- Dissolution (% release), Mean [12]: 82
- Dissolution (% release), Min. [12]: 71
- Dissolution (% release), Max. [13]: 97
- Dissolution (% release), Mean [13]: 87
- Dissolution (% release), Min. [13]: 79
- Dissolution (% release), Max. [14]: 99
- Dissolution (% release), Mean [14]: 92
- Dissolution (% release), Min. [14]: 85
- Dissolution (% release), Max. [15]: 101
- Dissolution (% release), Mean [15]: 94
- Dissolution (% release), Min. [15]: 88
- Dissolution (% release), Max. [16]: 105
- Dissolution (% release), Mean [16]: 102
- Dissolution (% release), Min. [16]: 101
- Dissolution, API released (in a capsule, small batch, 5 min, 50 rpm): 55%
- Dissolution, API released (in a capsule, small batch, 10 min, 50 rpm): 78%
- Dissolution, API released (in a capsule, small batch, 15 min, 50 rpm): 85%
- Dissolution, API released (in a capsule, small batch, 20 min, 50 rpm): 88%
- Dissolution, API released (in a capsule, small batch, 30 min, 50 rpm): 92%
- Dissolution, API released (in a capsule, small batch, 45 min, 50 rpm): 95%
- Dissolution, API released (in a capsule, small batch, 60 min, 50 rpm): 97%
- Dissolution, API released (in a capsule, small batch, 90 min (250 rpm after 60 min)): 102%
- Dissolution, API released (promethazine and sumatriptan pellets, 5 min, 50 rpm): 95%
- Dissolution, API released (promethazine and sumatriptan pellets, 15 min, 50 rpm): 102%
- Dissolution, API released (promethazine and sumatriptan pellets, 20 min, 50 rpm): 102%
- Dissolution, API released (promethazine and sumatriptan pellets, 30 min, 50 rpm): 102%
- Dissolution, API released (promethazine and sumatriptan pellets, 45 min, 50 rpm): 102%
- Dissolution, API released (promethazine and sumatriptan pellets, 60 min, 50 rpm): 102%
- Dissolution, API released (promethazine and sumatriptan pellets, 90 min (250 rpm after 60 min)): 102%
